Measurements: patent US20260070945A1, “MACROCYCLIC IMMUNOMODULATORS” (Bristol-Myers Squibb Company, priority 2022, published 2026)
Where a SMILES comes first, the peptide text is derived from it. Bridges are numbered along the chain shown (N, C = ends). [ ]: non-standard residue; d: D form. The star is where a group is joined. ξ: configuration not given here. Phe(4-COOH) = N[C@@H](Cc1ccc(C(=O)O)cc1)C(=O)O; Bip = N[C@@H](Cc1ccc(-c2ccccc2)cc1)C(=O)O; Phe(4-CN) = N#Cc1ccc(C[C@H](N)C(=O)O)cc1; Phe(3-F) = N[C@@H](Cc1cccc(F)c1)C(=O)O; Phe(3-Me) = Cc1cccc(C[C@H](N)C(=O)O)c1; Val(3-OH) = CC(C)(O)[C@H](N)C(=O)O; Cha = N[C@@H](CC1CCCCC1)C(=O)O; Thr(3ξ) = CC(O)[C@H](N)C(=O)O; Carboxymethyl = O=C(O)C*; NMeA = CN[C@@H](C)C(=O)O; Aun = NCCCCCCCCCCC(=O)O; Dab = NCC[C@H](N)C(=O)O; AEEA = NCCOCCOCC(=O)O

target: T1, PD-1/PD-L1 interaction (PE-labeled human PD-L1-Ig binding to Jurkat cell line over-expressing human PD-1) (Homo sapiens, UniProt Q15116); assay: Jurkat-PD-1 Cell Binding High-Content Screening Assay (CBA); conditions: PE-labeled PD-L1-Ig 20 nM final, Jurkat-hPD-1 cells; read-out: Jurkat HPD1 PDL1 IC50
T1 construct: expressed in transfected cells; host or cells: Jurkat
How it was run: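 Compound is added first to the PD-1-expressing Jurkat cells and held 2 h at 37 °C in serum-containing DMEM. The fluorescent PD-L1 fusion follows at 20 nM final for 1 h. Fixed, Hoechst-stained cells are then imaged for bound label.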

T1 sequence (Q15116 25-288): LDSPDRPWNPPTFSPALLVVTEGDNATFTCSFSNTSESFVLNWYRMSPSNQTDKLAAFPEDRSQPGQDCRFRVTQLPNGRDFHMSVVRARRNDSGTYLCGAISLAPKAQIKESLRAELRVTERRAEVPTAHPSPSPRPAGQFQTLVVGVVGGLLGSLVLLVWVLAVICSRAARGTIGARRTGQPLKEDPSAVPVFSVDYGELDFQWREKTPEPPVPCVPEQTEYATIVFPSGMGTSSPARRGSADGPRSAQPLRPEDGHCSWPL

Question: With `Cc1cccc(C[C@@H]2NC(=O)[C@H](CC(=O)O)NC(=O)[C@H](Cc3ccc(C#N)cc3)NC(=O)[C@H](C(C)O)NC(=O)CSC[C@@H](C(=O)N[C@@H](CCN)C(=O)NCCOCCOCC(=O)NCCOCCOCC(=O)NCCCCCCCCCCC(=O)O)NC(=O)[C@H](Cc3cnc[nH]3)NC(=O)[C@H](C(C)O)NC(=O)[C@H](CC3CCCCC3)NC(=O)[C@H](CCN)NC(=O)[C@@H](CC(C)C)NC(=O)[C@H](C)N(C)C(=O)[C@H](Cc3ccc(OCC(=O)O)cc3)NC(=O)[C@H](Cc3ccc(-c4ccccc4)cc3)NC(=O)[C@H](Cc3ccc(OCC(=O)O)cc3)NC2=O)c1` (stereo partly drawn) [Example 2525] ({CH2CO}-[Thr(3ξ)][Phe(4-CN)]D[Phe(3-Me)]Y(Carboxymethyl)[Bip]Y(Carboxymethyl)[NMeA][dL][Dab][Cha][Thr(3ξ)]HC[Dab][AEEA][AEEA][Aun]-OH; thioether N-14) as the compound, how does the IC50 read?
Answer: 7.9 nM

Question: For `Cc1cccc(C[C@@H]2NC(=O)[C@H](CC(=O)O)NC(=O)[C@H](Cc3ccc(C#N)cc3)NC(=O)[C@H](C(C)O)NC(=O)CSC[C@@H](C(=O)N[C@@H](CCN)C(=O)NCCOCCOCC(=O)NCCOCCOCC(=O)NCCCCCCCCCCC(=O)O)NC(=O)[C@H](CCC(=O)O)NC(=O)[C@H](C(C)C)NC(=O)[C@H](CC3CCCCC3)NC(=O)[C@H](CCN)NC(=O)[C@@H](CC(C)C)NC(=O)[C@H](C)N(C)C(=O)[C@H](Cc3ccc(OCC(=O)O)cc3)NC(=O)[C@H](Cc3ccc(-c4ccccc4)cc3)NC(=O)[C@H](Cc3cccc(F)c3)NC2=O)c1` (stereo partly drawn) [Example 2526] ({CH2CO}-[Thr(3ξ)][Phe(4-CN)]D[Phe(3-Me)][Phe(3-F)][Bip]Y(Carboxymethyl)[NMeA][dL][Dab][Cha]VEC[Dab][AEEA][AEEA][Aun]-OH; thioether N-14), which IC50 is on record?
Answer: 16.9 nM

Question: Which IC50 does the source give for `Cc1cccc(C[C@@H]2NC(=O)[C@H](CC(=O)O)NC(=O)[C@H](Cc3ccc(C(=O)O)cc3)NC(=O)[C@H](C(C)O)NC(=O)CSC[C@@H](C(=O)N[C@@H](CCN)C(=O)NCCOCCOCC(=O)NCCOCCOCC(=O)NCCCCCCCCCCC(=O)O)NC(=O)[C@H](CO)NC(=O)[C@H](C(C)(C)O)NC(=O)[C@H](CC3CCCCC3)NC(=O)[C@H](CCN)NC(=O)[C@@H](CC(C)C)NC(=O)[C@H](C)N(C)C(=O)[C@H](Cc3ccc(C(=O)O)cc3)NC(=O)[C@H](Cc3ccc(-c4ccccc4)cc3)NC(=O)[C@H](Cc3ccc(C(=O)O)cc3)NC2=O)c1` (stereo partly drawn) [Example 2527] ({CH2CO}-[Thr(3ξ)][Phe(4-COOH)]D[Phe(3-Me)][Phe(4-COOH)][Bip][Phe(4-COOH)][NMeA][dL][Dab][Cha][Val(3-OH)]SC[Dab][AEEA][AEEA][Aun]-OH; thioether N-14) here?
Answer: 1.8 nM

Question: Which IC50 does the source give for `Cc1cccc(C[C@@H]2NC(=O)[C@H](CC(=O)O)NC(=O)[C@H](Cc3ccc(C(=O)O)cc3)NC(=O)[C@H](C(C)O)NC(=O)CSC[C@@H](C(=O)N[C@@H](CCN)C(=O)NCCOCCOCC(=O)NCCOCCOCC(=O)NCCCCCCCCCCC(=O)O)NC(=O)[C@H](CCC(=O)O)NC(=O)[C@H](C(C)O)NC(=O)[C@H](CC3CCCCC3)NC(=O)[C@H](CCN)NC(=O)[C@@H](CC(C)C)NC(=O)[C@H](C)N(C)C(=O)[C@H](Cc3ccc(C(=O)O)cc3)NC(=O)[C@H](Cc3ccc(-c4ccccc4)cc3)NC(=O)[C@H](Cc3ccc(C(=O)O)cc3)NC2=O)c1` (stereo partly drawn) [Example 2528] ({CH2CO}-[Thr(3ξ)][Phe(4-COOH)]D[Phe(3-Me)][Phe(4-COOH)][Bip][Phe(4-COOH)][NMeA][dL][Dab][Cha][Thr(3ξ)]EC[Dab][AEEA][AEEA][Aun]-OH; thioether N-14) here?
Answer: 8.6 nM
